This test concerns the target alkaline phosphatase, placental type (Homo sapiens). The test can be described thus: inhibition of placental alkaline phosphatase – biochemical, uHTS hits, selectivity assay for mouse IAP inhibitor project, dose response (AID 488879). The note with it: purified human placental alkaline phosphatase, enzymatic inhibition.

The source made the active and inactive calls. No rule for the calls is given here.

For the compound `Clc1ccc(C(c2ccc(Cl)cc2)n2cc[n+](CC(OCc3ccc(Cl)cc3Cl)c3ccc(Cl)cc3Cl)c2)cc1` (stereo not drawn), the IC50 was > 100 µM (inactive).
To `S=C(NCCC(c1ccccc1)c1ccccc1)Nc1ccc(Cl)cc1` belongs > 100 µM (inactive); to `O=C1CSC(=S)N1/N=C/c1ccc(O)c(O)c1O`, > 100 µM (inactive).
To `CC(/C=C/C1(O)C(C)CC(=O)CC1(C)C)OC1OC(CO)C(O)C(O)C1O` (stereo not drawn) belongs > 100 µM (inactive); to `N#CC(C#N)=Cc1ccc(O)c(O)c1`, > 100 µM (inactive).
The same measure for `O=C(NN1C(=O)/C(=C/C=C/c2ccco2)SC1=S)c1ccccc1O`: 27.2 µM.
As for `CCN(C(=O)C(C)N1C(=O)/C(=C/c2ccco2)SC1=S)C1CCS(=O)(=O)C1` (stereo not drawn), the IC50 is 7.78 µM.
The same measure for `O=C(NC1CCCCC1)Oc1cc2oc(=O)sc2cc1Cl`: 5.95 µM; for `NS(=O)(=O)c1cc(C(=O)N=Nc2c(O)[nH]c3ccccc23)ccc1Cl`: > 100 µM (inactive).
`Cc1cc(Cn2nc(-c3ccccc3)cc2C(=O)NCc2cccc(C(F)(F)F)c2)on1`: the IC50 is > 100 µM (inactive).
To `Cc1cc(Cl)ccc1NC(=S)NCCC(c1ccccc1)c1ccccc1` belongs > 100 µM (inactive).
The same measure for `CCN1C(=O)/C(=C2\SC(=S)N(NC(=O)c3ccccc3O)C2=O)c2ccccc21`: > 100 µM (inactive).
Regarding `Cc1ccc(Cl)c2c1=NC(=O)C=2c1[nH]c(=S)[nH]c1O`, the IC50 is > 100 µM (inactive).
Consider `CCOC(=O)C1=C(C)N=c2s/c(=C/c3cccc([N+](=O)[O-])c3O)c(=O)n2C1c1ccc(OC)cc1OC` (stereo not drawn), for which the IC50 was > 100 µM (inactive).
To `COc1cccc(NC(=S)NCCC(c2ccccc2)c2ccccc2)c1` belongs > 100 µM (inactive); to `O=C(CCN1C(=O)/C(=C/c2ccco2)SC1=S)Nc1ccc(O)cc1C(=O)O`, > 100 µM (inactive); to `S=C(NCc1ccc(Cl)cc1Cl)NC1CCCCC1`, > 100 µM (inactive).
To `CCOc1ccc(S(=O)(=O)Nc2ccc(O)c(Sc3ncn[nH]3)c2)cc1` belongs 20.5 µM; to `O=C(CCNS(=O)(=O)c1ccc2[nH]c(=O)oc2c1)Nc1ccccc1`, 42.5 µM.
To `FC(F)Sc1ccc(NC(=S)NC(c2ccccc2)c2ccccc2)cc1` belongs > 100 µM (inactive); to `CCCn1ncc(CN2CCC(C(=O)Nc3cccc(-c4cccc(F)c4)c3)CC2)c1C`, > 100 µM (inactive).
Regarding `O=C(O)CCCN1C(=O)/C(=C/C=C/c2ccco2)SC1=S`, the IC50 is > 100 µM (inactive).
To `O=C1NN(c2cccc(Br)c2)C(=O)/C1=C/c1ccc(-c2cc([N+](=O)[O-])ccc2O)o1` belongs > 100 µM (inactive).
The same measure for `NS(=O)(=O)c1ccc2c(c1)oc(=O)c1cc(S(N)(=O)=O)ccc12`: > 100 µM (inactive).
On to `O=C(/C=C/c1ccco1)NC(=S)Nc1ccc(C(=O)O)cc1`, for which the IC50 was > 100 µM (inactive).
In the case of `O=C(NN1C(=O)/C(=C/c2ccc(O)c(O)c2)SC1=S)c1ccccc1`, the IC50 is > 100 µM (inactive).
To `O=C(COC(=O)c1ccccc1)Nc1ncc([N+](=O)[O-])s1` belongs 60.2 µM.
Regarding `CCn1cc(CN2CCC(C(=O)Nc3cccc(-c4cccc(Cl)c4)c3)CC2)c(C)n1`, the IC50 was > 100 µM (inactive).
As to `CN(CC(=O)NC(c1ccccc1)c1ccccc1)Cc1nc2ccccc2c(=O)[nH]1`, the IC50 was > 100 µM (inactive).
For the compound `COc1cc(NC(=S)NCCC(c2ccccc2)c2ccccc2)cc(OC)c1`, the IC50 was > 100 µM (inactive).
The same measure for `NS(=O)(=O)c1ccc(-c2ccc(/C=C3\NC(=S)NC3=O)o2)cc1`: > 100 µM (inactive); for `O=C(O)CC(C(=O)O)N1C(=O)/C(=C/C=C/c2ccco2)SC1=S` (stereo not drawn): > 100 µM (inactive); for `O=C(CSc1nc2nn(-c3ccccc3)c(=O)c-2c2n1CCCCC2)c1ccc(O)c(O)c1`: > 100 µM (inactive).
